In experiment [1] the target is T1, human renin (Homo sapiens, UniProt P00797).
T1 sequence (P00797 67-406): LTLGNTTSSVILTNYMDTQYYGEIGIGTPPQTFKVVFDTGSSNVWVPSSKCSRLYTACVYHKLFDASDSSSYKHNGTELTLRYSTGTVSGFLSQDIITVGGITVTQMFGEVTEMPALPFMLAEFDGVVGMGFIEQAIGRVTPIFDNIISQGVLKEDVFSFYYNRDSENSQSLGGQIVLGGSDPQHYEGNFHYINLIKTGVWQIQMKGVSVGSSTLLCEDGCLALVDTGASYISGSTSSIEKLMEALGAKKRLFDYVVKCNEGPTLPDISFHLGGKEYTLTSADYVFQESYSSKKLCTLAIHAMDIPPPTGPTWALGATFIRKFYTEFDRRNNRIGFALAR
The experiment is described as follows: Human renin-sheep renin substrate reaction system in vitro (angiotensin I by radioimmunoassay). The format is biochemical. Particulars: pH 7.4, 15 minutes, 37° C., read-out: IC50 (molar concentration). As to the method:
Human renin-sheep renin substrate reaction system in vitro
To a mixture containing 200 μl of a 125 mM pyrophosphate buffer (pH 7.4), 25 μl of a 20 mM aqueous solution of L-phenylalanyl-L-alanyl-L-prolin as an angiotensin cnverting enzyme inhibitor, 50 μl of semipurified sheep renin substrate (2000 ng angiotensin I/ml), 50 μl of dimethyl sulfoxide solution of an amino acid compound of the present invention and 150 μl of deionized water was added 25 μl of purified human renin (20-30 ng angiotensin I/ml/hr. The mixture was incubated for 15 minutes on a water bath at 37° C., and the reaction mixture was allowed to stand for 5 minutes on a water bath at 100° C. to stop the reaction. After cooling, 200 μl of the solution were taken up and the amount of angiotensin I produced by the addition of renin was determined by radiommunoassay. The inhibitory effect was calculated by the following equation.
As a control, the same procedure as above was carried out by using 50 μl of dimethyl sulfoxide alone in place of the 50 μl of dimethyl sulfoxide solution containing an amino acid compound of the present invention.

Experiment [2] deals with T2, renin in human high renin plasma (Homo sapiens, UniProt P00797).
T2 construct: 500 μl of human high renin plasma; from tissue; host or cells: human high renin plasma
T2 sequence (P00797 67-406): T1 sequence (P00797 67-406)
The experiment is described as follows: Renin inhibitory effect in a human high renin plasma (angiotensin I by radioimmunoassay). The format is biochemical. Particulars: 60 minutes, 37° C., read-out: IC50 (molar concentration).
Protocol: A mixture of 350 μl of a 0.5 M phosphate buffer containing 14 mM EDTA 2Na and a 0.3% neomycin sulfate, which was adjusted to the pH of 7, 50 μl of a 20 mM an aqueous solution of L-phenylalanyl-L-alanyl-L-prolin as an angiotensin converting enzyme inhibitor and 100 μl of dimethyl sulfoxide solution containing an amino acid compound of the present invention was added to 500 μl of human high renin plasma, and 200 μl of the mixture was incubated at 4° C. in an ice bath, and remaining mixture (800 μl ) was incubated for 60 minutes at 37° C. in a water bath. A 200 μl sample was withdrawn from the incubated mixture, chilled immediately in an ice bath, and the amount (A) of angiotensin I produced was determined by radioimmunoassay.
Also, the amount (B) of angiotensin I produced in the incubated mixture at 4° C. in an ice bath was determined by radioimmunoassy.
As a control, the same procedure as above was carried out by using 100 μl of dimethyl sulfoxide alone in place of the 100 μl of dimethyl sulfoxide solution containing an amino acid compound of the present invention.
The renin inhibitory effect in human plasa was calculated by taking the amount of angiotensin I (A) from the amount of angiotensin I (B). The inhibotory effect was calculated by the following equation.

Molecules are shown by their SMILES. pIC50: −log10 of the molar value.

For `COC(=O)C(O)[C@H](CC(C)C)NC(=O)[C@H](Cc1c[nH]cn1)NC(=O)C(CC(=O)N(C)C)Cc1cccc2ccccc12` (mixture of isomers) [Methyl (2RS, 3S)-3-{N-[2-(1-naphthylmethyl)-3-(dimethylcarbamoyl)propionyl]-L-histidyl}amino-2-hydroxy-5-methylhexanoate], the pIC50 was 7.11 in experiment [1] and 7.60 in experiment [2].
Turning to `CC(C)C[C@H](NC(=O)[C@H](Cc1c[nH]cn1)NC(=O)C(CC(=O)N1CCOCC1)Cc1cccc2ccccc12)[C@@H](O)CC(=O)OC(C)C` (stereo partly drawn) [Isopropyl N-[2-(1-naphthylmethyl)-3-(morphlinocarbonyl)propionyl]-L-histidylstatinate], in experiment [1], the pIC50 was 7.18.
For the molecule `COC(=O)C[C@H](O)[C@H](CC(C)C)NC(=O)[C@H](Cc1c[nH]cn1)NC(=O)C(CC(=O)N1CCOCC1)Cc1cccc2ccccc12` (stereo partly drawn) [Methyl N-[2-(1-naphthylmethyl)-3-(morpholinocarbonyl)propionyl]-L-histidylstatinate], in experiment [2], the pIC50 is 6.82.

(Values after patent publication US4656269A, “Histidine derivatives” (Kissei Pharmaceutical Co., Ltd., priority 1986, dated 1987).)
